ChEMBL document CHEMBL1143461, “Trifluoroethylamines as amide isosteres in inhibitors of cathepsin K” (Bioorg Med Chem Lett, 2005)

Key:
[1] = target: T1, Cathepsin K (Homo sapiens) (UniProt P43235); assay: pKa value determined against cathepsin K from humanized rabbit enzyme; settings: Oryctolagus cuniculus
T1 sequence (whole entry): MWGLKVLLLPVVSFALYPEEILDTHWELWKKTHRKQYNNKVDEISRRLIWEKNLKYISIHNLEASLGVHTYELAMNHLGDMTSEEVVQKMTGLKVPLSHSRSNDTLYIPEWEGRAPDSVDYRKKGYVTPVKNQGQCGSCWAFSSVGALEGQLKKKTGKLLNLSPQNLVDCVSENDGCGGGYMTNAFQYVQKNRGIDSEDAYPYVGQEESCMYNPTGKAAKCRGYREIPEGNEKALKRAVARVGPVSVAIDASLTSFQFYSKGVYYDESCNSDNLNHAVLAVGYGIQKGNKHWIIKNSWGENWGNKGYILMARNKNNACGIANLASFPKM

Cathepsin K [2] = target: T2, Cathepsin K (Homo sapiens, UniProt P43235); assay: Inhibitory activity against cathepsin K using humanized rabbit enzyme; parameters: species or system Oryctolagus cuniculus
Procathepsin L = Procathepsin L (Homo sapiens, UniProt P07711); assay: Inhibitory activity against cathepsin L from human
Procathepsin L, sequence (P07711 whole entry): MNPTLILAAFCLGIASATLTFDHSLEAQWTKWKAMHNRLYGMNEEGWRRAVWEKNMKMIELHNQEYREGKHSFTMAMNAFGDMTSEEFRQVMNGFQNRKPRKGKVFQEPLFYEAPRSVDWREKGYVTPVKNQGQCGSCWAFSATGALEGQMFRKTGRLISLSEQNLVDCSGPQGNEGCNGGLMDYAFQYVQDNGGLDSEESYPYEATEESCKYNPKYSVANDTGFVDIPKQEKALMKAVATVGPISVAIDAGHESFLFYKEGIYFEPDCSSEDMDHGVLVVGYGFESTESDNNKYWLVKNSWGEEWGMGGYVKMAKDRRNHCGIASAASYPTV

Cathepsin S = Cathepsin S (Homo sapiens, UniProt P25774); assay: Inhibitory activity against cathepsin S from human
Cathepsin S, sequence (P25774 whole entry): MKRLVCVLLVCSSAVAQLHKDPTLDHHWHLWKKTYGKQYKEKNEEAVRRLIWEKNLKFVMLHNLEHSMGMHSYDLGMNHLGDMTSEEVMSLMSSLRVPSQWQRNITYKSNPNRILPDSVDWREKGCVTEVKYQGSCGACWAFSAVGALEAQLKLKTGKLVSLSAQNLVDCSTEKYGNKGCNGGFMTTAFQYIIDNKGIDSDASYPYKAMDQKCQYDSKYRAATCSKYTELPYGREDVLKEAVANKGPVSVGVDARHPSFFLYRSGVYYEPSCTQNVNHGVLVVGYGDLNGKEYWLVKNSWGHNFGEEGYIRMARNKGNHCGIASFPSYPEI

Cathepsin B = Cathepsin B (Homo sapiens, UniProt P07858); assay: Inhibitory activity against cathepsin B from human
Cathepsin K [3] = target: T2, Cathepsin K; assay: Inhibitory activity against cathepsin K (10 pM) using humanized rabbit enzyme; parameters: species or system Oryctolagus cuniculus
Cathepsin K [4] = target: T2, Cathepsin K; assay: Inhibitory activity against cathepsin K from humanized rabbit enzyme; parameters: species or system Oryctolagus cuniculus

Compound	pKa [1]	IC50 (Cathepsin K [2])	IC50 (Procathepsin L)	IC50 (Cathepsin S)	IC50 (Cathepsin B)	IC50 (Cathepsin K [3])	IC50 (Cathepsin K [4])
CC(C)C[C@H](NC(C)c1ccc(Br)cc1)C(=O)NCC#N (stereo partly drawn)	6.7	988 nM	–	–	–	–	–
CN1CCN(c2nc(-c3ccc(C(=O)NC4(C(=O)NCC#N)CCCCC4)cc3)cs2)CC1	–	0.6 nM	3900 nM	> 10000 nM	1050 nM	–	–
CC(C)C[C@H](NC(C#N)c1ccc(Br)cc1)C(=O)NCC#N (stereo partly drawn)	0.7	30 nM	–	–	–	–	–
CC(C)C[C@H](N[C@@H](c1ccc(-c2ccc(N3CCNCC3)cc2)cc1)C(F)(F)F)C(=O)NCC#N	–	–	47 nM	451 nM	1110 nM	≤ 5 pM	–
CC(C)C[C@H](NC(c1ccc(Br)cc1)c1ccc(S(C)(=O)=O)cc1)C(=O)NCC#N (stereo partly drawn)	4.6	2.5 nM	–	–	–	–	–
N#CCNC(=O)C1(NC(=O)c2ccc(-c3ccc(N4CCNCC4)cc3)cc2)CCCCC1	–	0.4 nM	2270 nM	> 10000 nM	614 nM	–	–
CC(C)CC(NC(c1ccc(-c2ccc(N3CCNCC3)cc2)cc1)C(F)(F)F)C(=O)NCC#N (stereo not drawn)	–	4.6 nM	68 nM	902 nM	> 10000 nM	–	–
CC(C)C[C@H](Nc1cscc1-c1ccc(N2CCNCC2)cc1)C(=O)NCC#N	–	1 nM	–	–	–	–	–
CC(C)C[C@@H](C(=O)NCC#N)c1cccc(-c2ccc(N3CCNCC3)cc2)c1	–	11 nM	–	–	–	–	–
CC(C)C[C@H](NC(c1ccc(Br)cc1)C(F)(F)C(F)(F)F)C(=O)NCC#N (stereo partly drawn)	1.8	2.4 nM	–	–	–	–	–
N#CCNC(=O)C1(NC(c2ccc(-c3ccc(N4CCNCC4)cc3)cc2)C(F)(F)F)CCCCC1 (stereo not drawn)	–	5 nM	> 10000 nM	> 10000 nM	> 10000 nM	–	–
CC(C)C[C@H](NC(c1ccc(Br)cc1)C(F)(F)F)C(=O)NCC#N (stereo partly drawn)	1.3	1.3 nM	34 nM	121 nM	3350 nM	–	0.9 nM
CC(C)C[C@H](NCc1ccc(Br)cc1)C(=O)NCC#N	6.7	802 nM	–	–	–	–	–
